Measurements taken from US8558011B2, “Cold menthol receptor-1 antagonists” (Janssen Pharmaceutica, NV, priority 2010, dated 2013).

Columns and labels:
canine TRPM8 = biological target: T1, canine TRPM8 (Canis lupus familiaris, UniProt Q1A7N1); assay: In Vitro Canine TRPM8 Functional Assay (Ca2+-sensitive fluorescent dye, icilin activation, FLIPR/FDSS); format: cell-based; settings: HEK293 cells stably expressing canine TRPM8, icilin activation; for % I (1 μM): compound at 1 μM; for % I (0.5 μM): compound at 0.5 μM; for IC50: eight-point dose-response
T1 construct: expressed in transfected cells
T1 sequence (Q1A7N1 1-1104): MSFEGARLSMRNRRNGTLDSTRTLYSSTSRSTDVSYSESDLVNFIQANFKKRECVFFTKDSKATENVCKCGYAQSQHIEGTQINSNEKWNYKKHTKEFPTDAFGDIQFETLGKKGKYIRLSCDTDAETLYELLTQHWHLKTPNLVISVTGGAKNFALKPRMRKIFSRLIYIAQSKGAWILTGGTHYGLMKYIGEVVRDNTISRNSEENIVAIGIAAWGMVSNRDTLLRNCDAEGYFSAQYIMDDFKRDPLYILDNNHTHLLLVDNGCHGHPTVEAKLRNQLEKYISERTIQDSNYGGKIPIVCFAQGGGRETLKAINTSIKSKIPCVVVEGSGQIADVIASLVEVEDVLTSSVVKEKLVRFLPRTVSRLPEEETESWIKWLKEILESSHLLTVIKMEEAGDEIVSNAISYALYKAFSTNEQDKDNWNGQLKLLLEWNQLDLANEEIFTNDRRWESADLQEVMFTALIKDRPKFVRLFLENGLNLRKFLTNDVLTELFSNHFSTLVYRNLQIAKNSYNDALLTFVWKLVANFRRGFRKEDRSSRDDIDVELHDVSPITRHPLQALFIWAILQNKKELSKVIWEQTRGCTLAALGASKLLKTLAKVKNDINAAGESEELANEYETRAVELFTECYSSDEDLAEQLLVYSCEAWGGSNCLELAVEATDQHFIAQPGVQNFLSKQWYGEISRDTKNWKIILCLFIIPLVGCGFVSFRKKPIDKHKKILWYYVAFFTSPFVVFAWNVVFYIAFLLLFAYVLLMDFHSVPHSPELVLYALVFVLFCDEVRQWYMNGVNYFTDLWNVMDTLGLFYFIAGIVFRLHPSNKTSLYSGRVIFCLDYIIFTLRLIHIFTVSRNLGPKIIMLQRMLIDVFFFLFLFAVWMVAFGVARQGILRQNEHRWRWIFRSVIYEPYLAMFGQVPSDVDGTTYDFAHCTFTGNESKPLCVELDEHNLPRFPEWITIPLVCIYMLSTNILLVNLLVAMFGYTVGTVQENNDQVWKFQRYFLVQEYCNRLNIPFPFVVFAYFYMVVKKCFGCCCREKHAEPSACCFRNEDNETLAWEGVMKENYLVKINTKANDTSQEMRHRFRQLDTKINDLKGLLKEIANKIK
Procedure: The functional activity of compounds of Formula (I) was determined by measuring changes in intracellular calcium concentration using a Ca^2+-sensitive fluorescent dye. The changes in fluorescent signal were monitored by a fluorescence plate reader, either a FLIPR™ (Molecular Devices) or FDSS (Hamamatsu).
HEK293 cells stably expressing canine TRPM8 were routinely grown as monolayers in Dulbecco's minimum essential medium supplemented with 10% FBS, 1 mM L-glutamine, 100 units/mL penicillin, 100 ug/mL streptomycin and 400 μg/mL G418. Cells were maintained in 5% CO2 at 37° C. At 24 hrs prior to assay, cells were seeded in clear-base poly-D-lysine coated 384-well plates (BD Biosciences, NJ, USA) at a density of 5,000 cells per well in culture medium and grown overnight in 5% CO2 at 37° C. On assay day, growth media was removed and cells were loaded with Calcium 3 Dye (Molecular Devices) for 35 min at 37° C., under 5% CO2 and then for 25 min at room temperature and atmosphere. Subsequently, cells were tested for agonist-induced increases in intracellular Ca^2+ levels using FLIPR™ or FDSS. Cells were challenged with a compound of Formula (I) (at varying concentrations) and intracellular Ca^2+ was measured for 5 min prior to the addition of icilin to all wells to achieve a final concentration which produces approximately an 80% maximal response.
Basal FI was subtracted prior to normalizing data to percent of maximal response. Curves were generated using the average of quadruplicate wells for each data point, were analyzed using nonlinear regression of either sigmoidal dose response or sigmoidal dose response (variable slope). Finally, the EC50 and IC50 values were calculated with the best-fit dose curve determined by GraphPad Prism.

[1] = system: CFA-induced Paw Radiant Heat Hypersensitivity; assay: CFA-induced paw radiant heat hypersensitivity; format: in vivo, rat
Procedure: Intraplantar injection of Complete Freund's Adjuvant (CFA) in rodents results in a long-lasting inflammatory reaction, characterized by a pronounced hypersensitivity to both thermal and mechanical stimuli. This hypersensitivity peaks between 24-72 hours following injection and can last for several weeks. […] This paradigm also may be conducted with a multiple dosing or a prophylactic dosing regime designed to alter the course of hyperalgesia development. This test predicts the analgesic, anti-allodynic and antihyperalgesic effect of numerous effective clinical agents, including NSAIDS such as acetaminophen, aspirin and ibuprofen, and opioids such as morphine.
Each rat was placed in a test chamber on a warm glass surface and allowed to acclimate for approximately 10 minutes. A radiant thermal stimulus (beam of light) was then focused through the glass onto the plantar surface of each hind paw in turn. The thermal stimulus was automatically shut off by a photoelectric relay when the paw was moved or when the cut-off time was reached (20 seconds for radiant heat at ˜5 Amps). An initial (baseline) response latency to the thermal stimulus was recorded for each animal prior to the injection of CFA. Twenty-four hours following intraplantar CFA injection, the response latency of the animal to the thermal stimulus was then re-evaluated and compared to the animal's baseline response time. […] Immediately following the post-CFA latency assessment, test compound or vehicle (usually Solutol, hydroxypropyl methylcellulose, hydroxypropyl beta-cyclodextrin or PEG-400) was administered i.p. or p.o. to rats. […] The percent reversal (% R) of hypersenstivitiy was calculated according to the following formula: % Reversal=(Treatment Response−CFA Response)/(Baseline Response−CFA Response)×100.

| Structure (SMILES) | % Reversal ([1]; 30 mg/kg p.o., time 1 (h)) | % I (0.5 μM) (canine TRPM8) | IC50 (canine TRPM8) | other results |
| --- | --- | --- | --- | --- |
| CC(C)OP(=O)(OC(C)C)C(Cc1ccc(F)c(F)c1)c1sc2ccccc2c1Cl (centres unmarked) [Cpd 12, [1-(3-Chloro-benzo[b]thiophen-2-yl)-2-(3,4-difluoro-phenyl)-ethyl]-phosphonic acid diisopropyl ester] | – | – | – | % I (1 μM) (canine TRPM8): 100%; % Reversal ([1]; 30 mg/kg i.p., time 1 h): 105% |
| CCOP(=O)(OCC)C(Cc1ccc(F)c(F)c1)c1sc2ccccc2c1Br (centres unmarked) [Cpd 127, [1-(3-Bromo-benzo[b]thiophen-2-yl)-2-(3,4-difluoro-phenyl)-ethyl]-phosphonic acid dethyl ester] | 88% | – | – | % I (1 μM) (canine TRPM8): 100% |
| CCOP(=O)(OCC)C(Cc1cccc(Cl)c1)c1sc2ccccc2c1Br (centres unmarked) [Cpd 137, [1-(3-Bromo-benzo[b]thiophene-2-yl)-2-(3-chloro-phenyl)-ethyl]-phosphonic acid diethyl ester] | 34% | 102% | – | – |
| CCOP(=O)(OCC)C(Cc1ccc(F)cc1)c1sc2ccccc2c1Br (centres unmarked) [Cpd 238, [1-(3-Bromo-benzo[b]thiophen-2-yl)-2-(4-fluoro-phenyl)-ethyl]-phosphonic acid diethyl ester] | – | 104% | – | % Reversal ([1]; 30 mg/kg p.o., time 2 (h)): 56% |
| CCOP(=O)(OCC)C(Cc1ccc(F)c(Cl)c1)c1sc2ccccc2c1Br (centres unmarked) [Cpd 244] | – | 103% | 28 nM | % Reversal ([1]; 30 mg/kg p.o., time 2 (h)): 45% |
| CCOP(=O)(OCC)C(Cc1ccc(F)c(C(F)(F)F)c1)c1sc2ccccc2c1Cl (centres unmarked) [Cpd 298] | 20% | 99% | 85 nM | – |
| CCOP(=O)(OCC)C(Cc1ccc(SC)cc1)c1sc2ccccc2c1Cl (centres unmarked) [Cpd 299] | 23% | 101% | 141 nM | – |
| CCOP(=O)(OCC)C(Cc1cc(Cl)ccc1F)c1sc2ccccc2c1Br (centres unmarked) [Cpd 307] | – | 103% | 26 nM | – |
| CC(C)OP(=O)(OC(C)C)C(Cc1cc(Cl)ccc1F)c1sc2ccccc2c1Br (centres unmarked) [Cpd 308] | – | 103% | 17 nM | – |
| CCOP(=O)(OCC)C(Cc1cccc([N+](=O)[O-])c1)c1sc2ccccc2c1Br (centres unmarked) [Cpd 315] | – | 103% | – | – |
| CCOP(=O)(OCC)C(Cc1cccc(N)c1)c1sc2ccccc2c1Br (centres unmarked) [Cpd 318, [2-(3-Amino-phenyl)-1-(3-bromo-benzo[b]thiophen-2-yl)-ethyl]-phosphonic acid diethyl ester] | – | 100% | – | – |
